From patent US12161641B2, “Treatments and prevention of opioid neonatal abstinence syndrome” (Ohio State Innovation Foundation, priority 2016, dated 2024)

Tests used:
[1] = Cumulative injections of 6β-naltrexol: tissue levels, 1 versus 4 injections; format: in vivo, mice
Description: While 6β-naltrexol is relatively excluded from adult brain, it might accumulate slowly upon multiple dosing because of slow exit from the brain. Therefore, experiments were conducted to determine whether 6β-naltrexol accumulates in tissues over time after chronic delivery, and especially through retention in adult brain. After 4 injections of 6β-naltrexol over a 24 hr period (every 6 hrs), 6β-naltrexol levels were measured in fetal and maternal tissues 4 hrs after the last dose, and accumulation assessed in comparison to a single injection with a 4 hr survival. […] However, this was not significant (p>0.2). Also, 6β-naltrexol trended towards greater accumulation in liver than brain (p=0.084 for comparison of adult liver vs adult brain after 4 injections). Likewise, 6β-naltrexol trended towards greater accumulation in embryos than adults (p=0.063 for comparison of fetal vs adult brain after 4 injections).

[2] = system: pre-weaning age mice; assay: Naloxone-induced withdrawal jumping after morphine dosing in early postnatal mice; format: in vivo
Description: Animals were injected with morphine alone or morphine mixed with increasing amounts of 6β-naltrexol. Injections were started on postnatal day 12 (PD12) and continued for 5 days. On days 1-3 morphine was injected at 10 mg/kg, and at 20 mg/kg on days 4 and 5. On day 6 (PD18) a final injection of 20 mg/kg was made, and 3 hours later mice were injected with 30 mg/kg naloxone to induce withdrawal. All injections were subcutaneous. When Morphine was co-injected with 6β-naltrexol the latter was held at a constant ratio when the Morphine dose was increased on days 4-6. Because of the changing Morphine dosages the 6β-naltrexol dose is reported as a ratio relative to Morphine, or as a dose range. Immediately upon injection with naloxone mice were placed in a clear plastic container with a 6 inch square base and 10 inches tall, with a lid. Withdrawal jumping was videotaped and jumps were scored in a 15 minute interval.
Summary data are presented as means+1 SEM unless otherwise indicated Continuous data (drug concentrations) were analyzed using one-way ANOVA and post hoc comparisons were made using either Dunnett's procedure (for one-to-many comparisons) or t-tests (for all-pairs contrasts). In the latter case, p-values were adjusted for multiple comparisons using Hommel's method (Hommel, G. (1988) Biometrika 75:383-386). Data were log transformed to account for heteroscedasticity. When ratio values such as the brain/plasma ratio were compared, these were log-transformed before analysis to account for the constrained structure of ratio variables (e.g., Heslop, D. (2009) Geophys. J. Int. 178:159-161; Schilling K, et al. (2012) J Neurosci. 32:12651-12656). The dependence of jumping behavior on 6β-naltrexol levels was modelled using a 4-parametric log-normal curve taking into account that the response was a count variable. AUCs were integrated over the time span analyzed (i.e., from 0 to 240 min; Wolfsegger, M J, et al. (2009) J Pharmacokinet Pharmacodyn 36:479-494). Confidence intervals for AUCs were obtained by bootstrapping, as recommended in Jaki & Wolfsegger (Jaki, T, et al (2009) Pharmaceutical Statistics 8:12-24). All statistical procedures were implemented in R (R Core Team, 2015), using the packages multcomp (Hothorn, T, et al. (2008) Biometrical Journal 50:346-363) for multiple comparisons, PK (Jaki, T, et al. (2011) Pharmaceutical Statistics 10:284-288) for pharmacokinetic analyses, and drc (Ritz, C, et al. (2005) Bioassay analysis using R. J. Stat. Softw. 12:22) for dose-response fitting.
Considering that 6β-naltrexol continues to penetrate the brain at high levels prior to PD20 experiments were conducted to determine whether concomitant administration of 6β-naltrexol reduces withdrawal behaviors in pre-weaning age mice. A morphine dosing schedule was adapted based on studies in early postnatal rats and adult mice (Kest B. et al. (2002) Neuroscience 115:463-469; Jones, K L, et al. (1995) Behav. Neurosci. 109:1189-1198). Mice were injected with morphine alone, with morphine in combination with increasing concentrations of 6β-naltrexol, or saline alone, starting at P12 and continuing for 6 days. Withdrawal was then induced with an injection of naloxone. There was robust jumping characteristic of adult withdrawal behavior (Kest B, et al. (2002) Neuroscience 115.463-469), but not previously reported for pre-weaning mice or rats to our knowledge. […] At the highest dose tested, 0.5-1.0 mg/kg (= 1/20th that of morphine), withdrawal jumping is 94% reduced. The lowest 6β-naltrexol dose tested, 0.0033-0.0066 mg/kg (= 1/3000th that of morphine) caused a 20% decrease in jumping. There is also a time component to the effect of 6β-naltrexol on jumping behavior (FIG. 3B). As 6β-naltrexol levels were increased the jumps observed in a 15 minute testing bout were increasingly delayed. […]

[3] = Weight gain during 6 day morphine dosing schedule; format: in vivo, mice; conditions: increasing concomitant doses with morphine; 6 day dosing schedule
Description: Total jumps were counted over a period of 15 minutes starting immediately after the injection of naloxone to induce withdrawal. Two concentration ramping procedure were used for the morphine injections with commensurate ramping of 6β-naltrexol. Data are plotted using the lower of the two drug concentrations. Asterisks indicate a significant difference compared to morphine treated animals with no 6β-naltrexol; *p<0.05; **p<0.01. […] Bidirectional arrows indicate the time bin for each 6β-naltrexol dose where an equal number of jumps occur prior to and after that time bin. Note that this timepoint increases with increasing 6β-naltrexol. Asterisk indicates a significant effect of the 1/3000, 1/1000, and 1/200 doses of 6β-naltrexol compared to morphine-alone in the first three time bins. […] The mass of each mouse was determined before and after the 6 day morphine dosing schedule and the percent weight change was determined. Asterisk indicates significant difference from animals that received morphine but no (“0”) 6β-naltrexol (p<0.05). In FIG. 3A, the number in parentheses indicates the number of animals tested at each drug concentration. […]
Animals were injected with morphine alone or morphine mixed with increasing amounts of 6β-naltrexol. […] Withdrawal jumping was videotaped and jumps were scored in a 15 minute interval. […]

[4] = adult mice; 10 minutes after injection; cited from earlier work

**Q.** Which results are given for `Oc1ccc2c3c1O[C@H]1[C@H](O)CC[C@@]4(O)[C@@H](C2)N(CC2CC2)CC[C@]314` [6β-naltrexol]?
**A.** increase of 6β-naltrexol after cumulative injections, average for all tissues ([1]; 4 injections over 24 hr vs single injection, 4 hr survival, not significant (p>0.2)): ~1.5 fold; 6β-naltrexol level, Adult Brain, 1 injection ([1]; adult brain, 1 injection of 10 mg/kg, 4 hr survival): 110; 6β-naltrexol level, Adult Brain, 4 injections in 24 hrs ([1]; adult brain, 4 injections of 10 mg/kg in 24 hrs, 4 hr survival after last dose): 160; 6β-naltrexol level, Adult Liver, 1 injection ([1]; adult liver, 1 injection of 10 mg/kg, 4 hr survival): 280; 6β-naltrexol level, Adult Liver, 4 injections in 24 hrs ([1]; adult liver, 4 injections of 10 mg/kg in 24 hrs, 4 hr survival after last dose): 360; 6β-naltrexol level, Embryo Brain, 1 injection ([1]; embryo brain, 1 injection of 10 mg/kg, 4 hr survival): 210; 6β-naltrexol level, Embryo Brain, 4 injections in 24 hrs ([1]; embryo brain, 4 injections of 10 mg/kg in 24 hrs, 4 hr survival after last dose): 290; 6β-naltrexol level, Embryo Liver, 1 injection ([1]; embryo liver, 1 injection of 10 mg/kg, 4 hr survival): 250; 6β-naltrexol level, Embryo Liver, 4 injections in 24 hrs ([1]; embryo liver, 4 injections of 10 mg/kg in 24 hrs, 4 hr survival after last dose): 500; 6β-naltrexol level, Plasma, 1 injection ([1]; plasma, 1 injection of 10 mg/kg, 4 hr survival): 40; 6β-naltrexol level, Plasma, 4 injections in 24 hrs ([1]; plasma, 4 injections of 10 mg/kg in 24 hrs, 4 hr survival after last dose): 60; total jumps in the first three time bins (up to 4.5 mins) ([2]; 0.0033 mg/kg, 73+28 with no 6β-naltrexol, p=0.07): 37+29 jumps; latency-to-first-jump ([2]; 0.01-0.02 mg/kg (1/1000th the dose of morphine)): 118+31 sec; latency-to-first-jump ([2]; 0.05-0.1 mg/kg (1/200th the dose of morphine)): 163+46 sec; Survival ([2]; all conditions and all animals tested by this procedure): 100%; inhibitory dose 50 (ID50), withdrawal jumping ([2]; co-injected with morphine 10-20 mg/kg s.c. PD12-PD18, naloxone 30 mg/kg, jumps in 15 minutes): 0.022 to 0.044 mg/kg; withdrawal jumping reduced ([2]; highest dose tested, 0.5-1.0 mg/kg (1/20th that of morphine)): 94%; latency-to-first-jump ([2]; lowest dose (1/3000th the dose of morphine), 38+8 sec with no 6β-naltrexol): 128+44 sec; decrease in jumping ([2]; lowest dose tested, 0.0033-0.0066 mg/kg (1/3000th that of morphine)): 20%; ID50 dose lower than the morphine dose used for inducing dependence ([2]; mouse, in vivo): ~500 fold; ID50 relative to the morphine dose ([2]; ratio of 6β-naltrexol to morphine): 1/450; effect on inhibition of weight gain by morphine [3]: alleviated; brain levels lower than plasma levels [4]: ~10 fold
